Data published in patent US12534501B2, “Targeting deregulated Wnt signaling in cancer using stabilized alpha-helices of BCL-9” (Dana-Farber Cancer Institute, Inc., priority 2011, dated 2026).
Numbered stars: 1 amine (or outer) side, 2 acyl side, 3 side chain; on linkers, the order of the positions; unused ones are H or OH. Bridge positions count the residues as written; N and C are the ends. Square brackets hold non-standard residues; d marks the D form. Peptide text beside a SMILES is read from it. ξ: configuration not given here. ξαMeNle(6-ylidene) = CC(CCCC=[*:3])(N[*:1])C(=O)[*:2]; Nle = CCCC[C@H](N)C(=O)O

Legend:
[1] = test system: NFκB luciferase reporter in Colo320 cells; experiment: NFκB reporter gene transcriptional assay; format: cell-based; details: selectivity control
Description: Luciferase activity was measured using the Dual Luciferase Reporter Assay System (Promega) as previously described (Sukhdeo, K. et al. Proc Natl Acad Sci USA 104, 7516-21 (2007)). To measure Wnt or NFκB reporter activity, Colo320 cells were transfected with TOP-FLASH, FOP-FLASH plasmid (Millipore Corporation) or NFκB luciferase reporter (Stratagene), along with an internal Renilla control plasmid (hRL-null). Transfection was accomplished using FuGENE (Roche) according to the manufacturer's protocol. The results were normalized to control Renilla activity. The reported data represent the average of three independent transfection experiments performed in triplicate. See results in FIG. 9, FIG. 10.

[2] = test system: caspase-3 or PARP; experiment: Apoptosis by activated caspase-3 and PARP western blotting; format: cell-based; details: western analysis
Description: (§1) Cell proliferation assays were performed as described (Sukhdeo, K. et al. Proc Natl Acad Sci USA 104, 7516-21 (2007)). Cell viability was measured using the CellTiter-Glo assay (Promega) according to the manufacturer's instructions. Apoptosis was evaluated by activated caspase-3 and PARP western blotting. See results in FIG. 3A-FIG. 3F, FIG. 13, and FIG. 20.

[3] = test system: GFP-positive Colo320 cells in NOD/SCID mice; experiment: Colo320 intraperitoneal xenograft model; format: in vivo
Description: To explore the therapeutic potential of targeting the BCL9/β-catenin interaction, the capacity of SAH-BCL9B to suppress tumor growth was examined in vivo. GFP-expressing Colo320 cells (1×10^6) were injected into the peritoneum of sublethally irradiated NOD/SCID mice. Two days after cellular injection, mouse cohorts (n=6) were treated with vehicle (2.5% DMSO in D5W), SAH-BCL9B, or SAH-BCL9B(R359E) peptides (20 mg/kg) for a total of 6 doses administered intraperitoneally every other day. On day 40 of the experiment, mice were sacrificed and evaluated for tumor burden and metastasis by whole body imaging and histologic examination of harvested GFP-positive tissues. […] Importantly, no histologic changes in normal murine tissues were observed across the treatment groups upon necropsy.
GFP-positive Colo320 cells were generated as previously reported (Mani, M. et al. Cancer Res 69, 7577-86 (2009)). Cells were pelleted, resuspended in sterile 1x PBS and injected intraperitoneally (1×10^6 cells/mouse) into 5-week-old sublethally irradiated NOD.CB17-PrkdcSCID/J mice (Jackson Laboratory) (n=6 per cohort). Two days after cellular inoculation, mice were treated by intraperitoneal injection with vehicle (2.5% DMSO in D5W) or SAH-BCL9 peptides (20 mg/kg) on alternate days for a total of 6 doses. Forty days after tumor cell injection, the mice were euthanized and GFP-positive tumor visualized using an ImageQuant LAS-4000 (GE Healthcare). Complete necropsies were performed for each experimental animal and livers were sectioned in their entirety at 5 mm intervals for quantitation of tumor metastases. Tissues were subjected to H&E staining and immunohistochemical analysis using anti-CD34 and anti-CD44 antibodies.

[4] = test system: Colo320 cells; experiment: Cell proliferation, [3H]thymidine uptake; format: cell-based; details: 5 μM, 24 h
Description: as §1

[5] = test system: MM1S cells; experiment: Cell proliferation, [3H]thymidine uptake; format: cell-based; details: 5 μM
Description: as §1

[6] = test system: Wnt target genes in Colo320 cells; experiment: qPCR of Wnt/β-catenin target genes; format: cell-based
Description: RNA was extracted with TRIzol Reagent (Invitrogen) according to the manufacturer's protocol. Total RNA (2 μg) was reverse transcribed (SuperScript VILO cDNA synthesis kit, Invitrogen) and qPCR was performed using an Applied Biosynthesis 7500 Real-time PCR system. Analysis of target genes was conducted in quadruplicate using POWER SYBR Green Master Mix (Applied Biosystems) with previously described primer sets. Transcripts levels were normalized to β-actin expression. These experiments were repeated three times. See results in FIG. 2B, FIG. 2C.
To measure the effects of vehicle, SAH-BCL9B, and SAH-BCL9MUT on the expression of Wnt/β-catenin target genes, including VEGF, in Colo320 (FIG. 18) and MM1S (FIG. 19) cell lines, quantitative PCR (qRT-PCR) analysis was performed. RNA was extracted with TRIzol Reagent (Invitrogen) according to the manufacturer's protocol. Total RNA (2 μg) was reverse transcribed (SuperScript VILO cDNA synthesis kit, Invitrogen) and qPCR was performed using an Applied Biosynthesis 7500 Real-time PCR system. PCR primers were designed as below: […]
Analysis of target genes was conducted in quadruplicate using POWER SYBR Green Master Mix (Applied Biosystems) as previously described (M. Mani et al., Cancer Res 69, 7577 (2009)). Transcripts levels were normalized to β-actin expression. These experiments were repeated three times.

[7] = test system: Colo320 cells; experiment: Cellular uptake of FITC-labelled peptides; format: cell-based; details: FITC derivatives
Description: For fluorescence microscopy evaluation, cells were prepared using a cytocentrifuge (Thermo Shandon) and fixed as previously described (Sukhdeo, K. et al. Proc Natl Acad Sci USA 104, 7516-21 (2007); Mani, M. et al. Cancer Res 69, 7577-86 (2009)). Anti-β-catenin and rhodamine-conjugated secondary antibodies (5 μg/ml; Southern Biotechnology) were employed. Images were obtained using a BioRad Radiance 2000 laser scanning confocal microscope. Cell permeability of SAH-BCL9B and SAH-BCL9B(R359E) were determined by fluorescence microscopy of cells treated with FITC-derivatives of the above described stapled peptides and also by blotting/fluorescence scan, performed as previously described (Pitter, K. et al Methods Enzymol, 446, (2008), 387-408; Walensky, L. D. et al. Science 305, 1466-70 (2004). See results in FIG. 1E, FIG. 7.

[8] = 20 mg/kg i.p. every other day, 6 doses, day 40

Compound | effect on NFκB reporter activity [1] | caspase-3 or PARP activation [2] | metastatic tumor nodules in the liver [3, 8] | tumor burden (overall tissue fluorescence, whole body imaging) [3, 8] | capillary CD34 immunoreactivity ([3]; 20 mg/kg i.p., 6 doses) | number of intratumoral blood vessels ([3]; 20 mg/kg i.p., 6 doses) | tumor cell CD44 immunoreactivity ([3]; 20 mg/kg i.p., 6 doses) | TUNEL positivity in colonic tumor tissue ([3]; NOD/SCID mice bearing intraperitoneal Colo320 cells) | proliferation [4] | proliferation [5] | mRNA levels of VEGF, c-Myc, and Axin2 ([6]; qPCR) | Actin expression (non-Wnt pathway target gene) ([6]; qRT-PCR, Colo320) | mRNA levels of VEGF, c-MYC, LGR5, LEF1, and AXIN2 ([6]; qRT-PCR, Colo320 (FIG. 18A), normalized to β-actin) | cellular uptake [7]
CCCC[C@H](NC(=O)[C@H](CCCNC(=N)N)NC(=O)[C@H](CCC(N)=O)NC(=O)[C@@H](NC(=O)C1(C)CCCC=CCCCC(C)(NC(=O)[C@H](CC(C)C)NC(=O)[C@H](CO)NC(=O)[C@H](CCCNC(=N)N)NC(=O)[C@H](CCC(=O)O)NC(=O)[C@H](CCCNC(=N)N)NC(=O)[C@H](Cc2c[nH]cn2)NC(=O)[C@H](CCC(=O)O)NC(=O)[C@H](CC(C)C)NC(=O)[C@H](CCC(N)=O)NC(=O)[C@H](CCC(=O)O)NC(=O)[C@H](CCC(N)=O)NC(=O)[C@H](CO)NC(=O)[C@H](CC(C)C)NC(C)=O)C(=O)N[C@@H]([C@@H](C)O)C(=O)N[C@@H](CC(C)C)C(=O)N[C@@H](CCCNC(=N)N)C(=O)N1)[C@@H](C)CC)C(=O)N[C@@H](CC(C)C)C(=O)N[C@@H](Cc1ccccc1)C(N)=O (some centres unmarked) [SAH-BCL9B] (Ac-LSQEQLEHRERSL[ξαMeNle(6-ylidene)]TLR[ξαMeNle(6-ylidene)]IQR[Nle]LF-NH2; staple 14-18) | no effect | did not activate caspase-3 or PARP | overall reduction of metastatic tumor nodules | markedly reduced | less intense capillary CD34 immunoreactivity | reduction in the number of intratumoral blood vessels | decreased tumor cell CD44 immunoreactivity | notably increased TUNEL positivity | reduced the proliferation | reduced the proliferation | significantly reduced | no change | dose-responsively reduced | –
SAH-BCL9B(R359E): SEQ ID NO: 7: LSQEQLEHEERSLXTLRXIQRBLF; reverse polarity point mutant, negative control of SAH-BCL9B | – | – | – | – | – | – | – | – | – | – | – | – | – | similar
